Columns and labels:
Set-up in all cases: species or system Lederbergia lenta
[1] = Compound was evaluated for the inhibition of SBL-M222C enzyme.
[2] = Compound was evaluated for the inhibition of SBL-M222C-SEtNH3+ enzyme.
[3] = Compound was evaluated for the inhibition of SBL-M222C-SEtSO3- enzyme.
[4] = Compound was evaluated for the inhibition of SBL-M222C-SMe enzyme.
[5] = Compound was evaluated for the inhibition of SBL-WT enzyme.

| Structure (SMILES) | Ki [1] | Ki [2] | Ki [3] | Ki [4] | Ki [5] |
| --- | --- | --- | --- | --- | --- |
| OB(O)c1cccc(-c2ccccc2)c1 | 31 µM | 40 µM | 25 µM | 153 µM | 327 µM |
| Nc1cccc(B(O)O)c1 | 204 µM | 127 µM | 176 µM | 139 µM | 150 µM |
| OB(O)c1ccccc1 [PHENYLBORONIC ACID] | 155 µM | 108 µM | 146 µM | 123 µM | 141 µM |

The next molecules have a lower Ki [1] than those just listed; values first:

| Ki [1] | Ki [2] | Ki [3] | Ki [4] | Ki [5] | Structure (SMILES) |
| --- | --- | --- | --- | --- | --- |
| 23 µM | 10.5 µM | 15.6 µM | 11.2 µM | 23 µM | OB(O)c1ccc(Br)cc1 |
| 18 µM | 8.9 µM | 11 µM | 3.8 µM | 9.2 µM | OB(O)c1ccc(Cl)cc1Cl |
